row,Compound,melting point
1,CC(C)(C)c1ccc(OC(F)(F)F)c(CN[C@H]2CCCN[C@H]2c2ccccc2)c1.Cl,262 to 264 °C
2,CC(C)c1ccc(OCC(F)(F)F)c(CN[C@H]2CCCN[C@H]2c2ccccc2)c1.Cl,> 280 °C
3,Cl.FC(F)Oc1ccc(OC(F)F)c(CN[C@H]2CCCN[C@H]2c2ccccc2)c1,238 to 239 °C
4,CC(C)(C)c1ccc(OC(F)F)c(CN[C@H]2CCCN[C@H]2c2ccccc2)c1.Cl,263 to 264 °C (dec.)
5,CC(C)Oc1ccc(OC(F)(F)F)cc1CN[C@H]1CCCN[C@H]1c1ccccc1.Cl,245 to 246 °C (dec.)
6,CCOc1ccc(OC(F)(F)F)cc1CN[C@H]1CCCN[C@H]1c1ccccc1.Cl,> 275 °C (dec.)
7,CC(C)c1ccc(OC(F)F)c(CN[C@H]2CCCN[C@H]2c2ccccc2)c1.Cl,245 to 247 °C (dec.)
8,CC(=O)Nc1ccc(OCC(F)(F)F)c(CN[C@H]2CCCN[C@H]2c2ccccc2)c1.Cl,> 270 °C
9,Cc1ccc(OC(F)F)c(CN[C@H]2CCCN[C@H]2c2ccccc2)c1.Cl,> 275 °C
10,Cl.FC(F)(F)Oc1ccccc1CN[C@H]1CCCN[C@H]1c1ccccc1,231 to 233 °C

# Reference: patent US20030199540A1, “Fluoroalkyoxybenzylamino derivatives of nitrogen containing heterocycles” (priority 1991, published 2003)
